In PubChem BioAssay (NCI):
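In this assay, cells in 96-well plates receive the compound at five concentrations for 48 hours. Endpoints are linearly interpolated between the surrounding concentrations. TGI is the concentration that stops growth completely.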

Legend:
Experiment in all cases: NCI-60 cell line screen, 48 h
786-0 renal = system: 786-0 renal
A498 renal = system: A498 renal
A549 NSCLC = system: A549 NSCLC
ACHN renal = system: ACHN renal
BT-549 breast = system: BT-549 breast
CAKI-1 renal = system: CAKI-1 renal
CCRF-CEM leukemia = system: CCRF-CEM leukemia
COLO 205 colon = system: COLO 205 colon
DU-145 prostate = system: DU-145 prostate
EKVX NSCLC = system: EKVX NSCLC
HCC-2998 colon = system: HCC-2998 colon
HCT-116 colon = system: HCT-116 colon
HCT-15 colon = system: HCT-15 colon
HL-60(TB) leukemia = system: HL-60(TB) leukemia
HOP-62 NSCLC = system: HOP-62 NSCLC
HOP-92 NSCLC = system: HOP-92 NSCLC
HS 578T breast = system: HS 578T breast
HT29 colon = system: HT29 colon
K-562 leukemia = system: K-562 leukemia
KM12 colon = system: KM12 colon
LOX IMVI melanoma = system: LOX IMVI melanoma
M14 melanoma = system: M14 melanoma
MALME-3M melanoma = system: MALME-3M melanoma
MCF7 breast = system: MCF7 breast
MDA-MB-231 breast = system: MDA-MB-231 breast
MDA-MB-435 = system: MDA-MB-435
MDA-N = system: MDA-N
MOLT-4 leukemia = system: MOLT-4 leukemia
NCI-H226 lung = system: NCI-H226 lung
NCI-H23 lung = system: NCI-H23 lung
NCI-H460 lung = system: NCI-H460 lung
NCI-H522 lung = system: NCI-H522 lung
NCI/ADR-RES ovarian = system: NCI/ADR-RES ovarian
OVCAR-3 ovarian = system: OVCAR-3 ovarian
OVCAR-4 ovarian = system: OVCAR-4 ovarian
OVCAR-5 ovarian = system: OVCAR-5 ovarian
OVCAR-8 ovarian = system: OVCAR-8 ovarian
PC-3 prostate = system: PC-3 prostate
RXF 393 renal = system: RXF 393 renal
SF-268 CNS = system: SF-268 CNS
SF-295 CNS = system: SF-295 CNS
SF-539 CNS = system: SF-539 CNS
SK-MEL-2 melanoma = system: SK-MEL-2 melanoma
SK-MEL-28 melanoma = system: SK-MEL-28 melanoma
SK-MEL-5 melanoma = system: SK-MEL-5 melanoma
SK-OV-3 ovarian = system: SK-OV-3 ovarian
SN12C renal = system: SN12C renal
SNB-19 CNS = system: SNB-19 CNS
SNB-75 CNS = system: SNB-75 CNS
SW-620 colon = system: SW-620 colon
T-47D breast = system: T-47D breast
TK-10 renal = system: TK-10 renal
U251 CNS = system: U251 CNS
UACC-257 melanoma = system: UACC-257 melanoma
UACC-62 melanoma = system: UACC-62 melanoma
UO-31 renal = system: UO-31 renal
IGROV1 ovarian = system: IGROV1 ovarian
RPMI-8226 leukemia = system: RPMI-8226 leukemia
SR leukemia = system: SR leukemia

## C=CC[C@H](N=C(SC)SC)C(=O)N1C(=O)N(C)[C@@H](C)[C@H]1c1ccccc1
786-0 renal
  TGI: > 100 µM
A498 renal
  TGI: > 100 µM
A549 NSCLC
  TGI: > 100 µM
ACHN renal
  TGI: > 100 µM
BT-549 breast
  TGI: > 100 µM
CAKI-1 renal
  TGI: > 100 µM
CCRF-CEM leukemia
  TGI: > 100 µM
COLO 205 colon
  TGI: > 100 µM
DU-145 prostate
  TGI: > 100 µM
EKVX NSCLC
  TGI: 78.4 µM
HCC-2998 colon
  TGI: 92.2 µM
HCT-116 colon
  TGI: > 100 µM
HCT-15 colon
  TGI: > 100 µM
HL-60(TB) leukemia
  TGI: > 100 µM
HOP-62 NSCLC
  TGI: > 100 µM
HOP-92 NSCLC
  TGI: 68.3 µM
HS 578T breast
  TGI: > 100 µM
HT29 colon
  TGI: > 100 µM
K-562 leukemia
  TGI: > 100 µM
KM12 colon
  TGI: > 100 µM
LOX IMVI melanoma
  TGI: > 100 µM
M14 melanoma
  TGI: > 100 µM
MALME-3M melanoma
  TGI: > 100 µM
MCF7 breast
  TGI: > 100 µM
MDA-MB-231 breast
  TGI: > 100 µM
MDA-MB-435
  TGI: > 100 µM
MDA-N
  TGI: > 100 µM
MOLT-4 leukemia
  TGI: > 100 µM
NCI-H226 lung
  TGI: > 100 µM
NCI-H23 lung
  TGI: > 100 µM
NCI-H460 lung
  TGI: > 100 µM
NCI-H522 lung
  TGI: 54.1 µM
NCI/ADR-RES ovarian
  TGI: > 100 µM
OVCAR-3 ovarian
  TGI: > 100 µM
OVCAR-4 ovarian
  TGI: > 100 µM
OVCAR-5 ovarian
  TGI: > 100 µM
OVCAR-8 ovarian
  TGI: > 100 µM
PC-3 prostate
  TGI: > 100 µM
RXF 393 renal
  TGI: > 100 µM
SF-268 CNS
  TGI: > 100 µM
SF-295 CNS
  TGI: > 100 µM
SF-539 CNS
  TGI: > 100 µM
SK-MEL-2 melanoma
  TGI: 91.2 µM
SK-MEL-28 melanoma
  TGI: > 100 µM
SK-MEL-5 melanoma
  TGI: > 100 µM
SK-OV-3 ovarian
  TGI: > 100 µM
SN12C renal
  TGI: > 100 µM
SNB-19 CNS
  TGI: > 100 µM
SNB-75 CNS
  TGI: > 100 µM
SW-620 colon
  TGI: > 100 µM
T-47D breast
  TGI: > 100 µM
TK-10 renal
  TGI: > 100 µM
U251 CNS
  TGI: > 100 µM
UACC-257 melanoma
  TGI: > 100 µM
UACC-62 melanoma
  TGI: > 100 µM
UO-31 renal
  TGI: > 100 µM

## FC(F)(F)c1ccc2nc(Sc3ccc4ccccc4c3)cnc2c1
786-0 renal
  TGI: > 100 µM
A498 renal
  TGI: > 100 µM
A549 NSCLC
  TGI: > 100 µM
ACHN renal
  TGI: > 100 µM
BT-549 breast
  TGI: > 100 µM
CAKI-1 renal
  TGI: > 100 µM
CCRF-CEM leukemia
  TGI: > 100 µM
COLO 205 colon
  TGI: > 100 µM
DU-145 prostate
  TGI: > 100 µM
EKVX NSCLC
  TGI: > 100 µM
HCC-2998 colon
  TGI: > 100 µM
HCT-116 colon
  TGI: > 100 µM
HCT-15 colon
  TGI: > 100 µM
HL-60(TB) leukemia
  TGI: > 100 µM
HOP-62 NSCLC
  TGI: > 100 µM
HOP-92 NSCLC
  TGI: > 100 µM
HS 578T breast
  TGI: > 100 µM
HT29 colon
  TGI: > 100 µM
IGROV1 ovarian
  TGI: > 100 µM
K-562 leukemia
  TGI: > 100 µM
KM12 colon
  TGI: > 100 µM
LOX IMVI melanoma
  TGI: > 100 µM
M14 melanoma
  TGI: > 100 µM
MALME-3M melanoma
  TGI: > 100 µM
MCF7 breast
  TGI: 95 µM
MDA-MB-231 breast
  TGI: > 100 µM
MDA-MB-435
  TGI: > 100 µM
MDA-N
  TGI: > 100 µM
MOLT-4 leukemia
  TGI: > 100 µM
NCI-H226 lung
  TGI: > 100 µM
NCI-H23 lung
  TGI: > 100 µM
NCI-H460 lung
  TGI: > 100 µM
NCI-H522 lung
  TGI: > 100 µM
NCI/ADR-RES ovarian
  TGI: > 100 µM
OVCAR-4 ovarian
  TGI: > 100 µM
OVCAR-5 ovarian
  TGI: > 100 µM
OVCAR-8 ovarian
  TGI: > 100 µM
RXF 393 renal
  TGI: 92.6 µM
SF-268 CNS
  TGI: > 100 µM
SF-295 CNS
  TGI: > 100 µM
SF-539 CNS
  TGI: > 100 µM
SK-MEL-2 melanoma
  TGI: 66.3 µM
SK-MEL-28 melanoma
  TGI: > 100 µM
SK-MEL-5 melanoma
  TGI: > 100 µM
SK-OV-3 ovarian
  TGI: > 100 µM
SN12C renal
  TGI: > 100 µM
SNB-19 CNS
  TGI: > 100 µM
SNB-75 CNS
  TGI: > 100 µM
SW-620 colon
  TGI: > 100 µM
T-47D breast
  TGI: > 100 µM
TK-10 renal
  TGI: > 100 µM
U251 CNS
  TGI: > 100 µM
UACC-257 melanoma
  TGI: > 100 µM
UACC-62 melanoma
  TGI: > 100 µM
UO-31 renal
  TGI: > 100 µM

## CC(=O)NC1C(OCc2ccccc2)OC(CO)C(O)C1OCC(=O)N[C@@H](C)C(=O)N[C@H](CCC(=O)NCCCNc1ccc([N+](=O)[O-])c2[nH]c3ccccc3c(=O)c12)C(N)=O (some centres not stated)
786-0 renal
  TGI: > 100 µM
A498 renal
  TGI: > 100 µM
A549 NSCLC
  TGI: > 100 µM
ACHN renal
  TGI: > 100 µM
BT-549 breast
  TGI: 96.9 µM
CAKI-1 renal
  TGI: > 100 µM
CCRF-CEM leukemia
  TGI: > 100 µM
COLO 205 colon
  TGI: > 100 µM
DU-145 prostate
  TGI: > 100 µM
EKVX NSCLC
  TGI: > 100 µM
HCC-2998 colon
  TGI: > 100 µM
HCT-116 colon
  TGI: > 100 µM
HCT-15 colon
  TGI: > 100 µM
HL-60(TB) leukemia
  TGI: > 100 µM
HOP-62 NSCLC
  TGI: > 100 µM
HOP-92 NSCLC
  TGI: > 100 µM
HS 578T breast
  TGI: 90.2 µM
HT29 colon
  TGI: > 100 µM
IGROV1 ovarian
  TGI: > 100 µM
K-562 leukemia
  TGI: > 100 µM
KM12 colon
  TGI: > 100 µM
LOX IMVI melanoma
  TGI: > 100 µM
M14 melanoma
  TGI: > 100 µM
MALME-3M melanoma
  TGI: > 100 µM
MDA-MB-231 breast
  TGI: > 100 µM
MDA-MB-435
  TGI: > 100 µM
MDA-N
  TGI: > 100 µM
NCI-H226 lung
  TGI: 65.8 µM
NCI-H23 lung
  TGI: > 100 µM
NCI-H460 lung
  TGI: > 100 µM
NCI-H522 lung
  TGI: > 100 µM
NCI/ADR-RES ovarian
  TGI: > 100 µM
OVCAR-3 ovarian
  TGI: > 100 µM
OVCAR-4 ovarian
  TGI: 94.8 µM
OVCAR-5 ovarian
  TGI: > 100 µM
OVCAR-8 ovarian
  TGI: > 100 µM
PC-3 prostate
  TGI: > 100 µM
RPMI-8226 leukemia
  TGI: > 100 µM
RXF 393 renal
  TGI: > 100 µM
SF-295 CNS
  TGI: > 100 µM
SF-539 CNS
  TGI: > 100 µM
SK-MEL-2 melanoma
  TGI: > 100 µM
SK-MEL-28 melanoma
  TGI: > 100 µM
SK-MEL-5 melanoma
  TGI: > 100 µM
SK-OV-3 ovarian
  TGI: > 100 µM
SN12C renal
  TGI: > 100 µM
SNB-19 CNS
  TGI: > 100 µM
SNB-75 CNS
  TGI: > 100 µM
SR leukemia
  TGI: > 100 µM
SW-620 colon
  TGI: > 100 µM
T-47D breast
  TGI: > 100 µM
TK-10 renal
  TGI: > 100 µM
U251 CNS
  TGI: > 100 µM
UACC-257 melanoma
  TGI: > 100 µM
UACC-62 melanoma
  TGI: > 100 µM
UO-31 renal
  TGI: > 100 µM
